One may read the MIC as the least concentration at which growth counts as inhibited. What is called half-life is the time in which the quantity being followed falls by half. A lower half-life goes with rapid decline. A word on the solubility: it is how much of the substance goes into solution per volume. Read a low solubility as little dissolved substance. By CC50 is commonly meant the concentration giving 50% cytotoxicity. A low value points to harm at low concentration. By IC50 is commonly meant the concentration that inhibits the measured activity by half. Broadly, the Vd is a proportionality between amount in the body and measured concentration, not a real space. Usually clearance stands for the rate of elimination divided by the concentration. The low end stands for a low capacity for elimination, the high end for a high capacity for elimination. What is called AUC(0-t) is the area under the concentration-time curve up to a stated or last time point. A low value points to less exposure. The Cmax is the highest concentration seen after dosing. The bioavailability is dose-corrected exposure relative to a reference, in per cent. A higher bioavailability goes with much systemic uptake. In general, microsomal CLint refers to the rate of metabolic loss divided by the concentration. Low values mean greater metabolic stability, high ones faster metabolism. Broadly, the AUC is the area under the concentration-time curve, a measure of exposure. Read a high AUC as more exposure.

Data set [1] has as its system M. tuberculosis H37Rv. Description: MIC, microplate-based Alamar Blue assay. In kind it is cell-based, Mycobacterium tuberculosis.
The nature of data set [2]: Mouse liver microsomal stability. In kind it is in vitro ADME. The note with it: liver microsomes, pH 7.4. On the technique in general: Microsomes from liver hold many membrane-bound enzymes, among them those of drug oxidation.
Data set [3] is described as follows: Kinetic aqueous solubility. In kind it is physicochemical. As to conditions: universal aqueous buffer, pH 7.4.
In data set [4] the test system is M. tuberculosis H37Rv. The note with it: cited from earlier work.
The next data set relates to E. faecium. Briefly: MIC versus ESKAPE bacteria: E. faecium. The note with it: Enterococcus faecium. It is filed as cell-based.
The test system of data set [5] is human cytochrome P450 isoforms. In kind it is in vitro ADME.
Data set [6] is described as follows: Vero cell-based cytotoxicity. As to conditions: African green monkey, Vero cells.
The next data set addresses purified InhA (Mycobacterium tuberculosis, UniProt P9WGR1). Briefly: biochemical. The arrangement: species or system M. tuberculosis.
For data set [7] the following is noted: for T>MIC: single 25 mg/kg po dose.
A short description of a further data set: in vivo. As to conditions: female, mouse; for Vd / clearance / half-life: iv, 5 mg/kg.
Data set [8] can be described thus: Dose proportionality and tolerability in mice. The note with it: single dose 300 mg/kg.
Data set [9] deals with M. tuberculosis H37Rv. Description: Griess assay for NO• quantification, H37Rv. As to conditions: 20 μM compound, 5 d exposure, lower limit of quantification 0.80 μM NO2−. It is filed as cell-based, Mycobacterium tuberculosis. A general note: Griess reagent forms a coloured azo dye with nitrite.
A further data set in a line: Mouse plasma stability. In kind it is in vitro ADME. The note with it: after 5 h incubation.
The next data set has as its system E. cloacae. Description: MIC versus ESKAPE bacteria: E. cloacae. In kind it is cell-based. As to conditions: Enterobacter cloacae.
For the next data set, the system named is M. tuberculosis fgd1∷tn. Description: Griess assay for NO• quantification, fgd1∷tn. In kind it is cell-based, Mycobacterium tuberculosis. The note with it: 20 μM compound, lower limit of quantification 0.80 μM NO2−.
In a further data set the test system is P aeruginosa. Description: MIC versus ESKAPE bacteria: P aeruginosa. It is filed as cell-based.
Data set [10] deals with 100 day-old cultures of M. tuberculosis H37Rv. It is filed as cell-based, Mycobacterium tuberculosis.
The test system of data set [11] is FAS-II pathway in M. tuberculosis H37Rv. It is filed as cell-based, Mycobacterium tuberculosis.
The test system of data set [12] is M. tuberculosis H37Rv. It is filed as in vivo. As to conditions: 60 and 200 mg/kg oral daily, after 4 weeks of dosing, Balb/c mice.
Data set [13] in a line: Human liver microsomal stability. It is filed as in vitro ADME. The note with it: liver microsomes, pH 7.4.
Data set [14] in a line: Chemical stability, degradation to aminotriazine. The note with it: C-N bond cleavage to aminotriazine JSF-3226, light-dependent.
For a further data set, the system named is M. tuberculosis. Briefly: Minimum bactericidal concentration. In kind it is cell-based, Mycobacterium tuberculosis.
For data set [15] the following is noted: ref Inoyama et al., 2018; cited from earlier work.
Data set [16] relates to M. tuberculosis strain fgd1∷tn. Briefly: MIC versus F420H2 deficient strain fgd1∷tn. It is filed as cell-based, Mycobacterium tuberculosis.
[17] abbreviates: Mycobacterium tuberculosis, H37RV.

In brackets after ≈: the same amount, converted by molar mass. Where two headings read alike, the source gives them in different places. Where only a bound is given, the exact number is not on record here.

Chain of purified InhA (P9WGR1 whole entry, looked up): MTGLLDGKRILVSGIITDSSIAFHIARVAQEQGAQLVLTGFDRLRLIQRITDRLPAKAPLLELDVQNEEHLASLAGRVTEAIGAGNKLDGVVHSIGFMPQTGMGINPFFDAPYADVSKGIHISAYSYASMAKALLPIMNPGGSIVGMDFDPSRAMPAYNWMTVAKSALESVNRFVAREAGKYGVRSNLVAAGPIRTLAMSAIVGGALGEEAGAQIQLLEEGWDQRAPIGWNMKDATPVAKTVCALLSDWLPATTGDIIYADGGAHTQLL

Regarding `O=[N+]([O-])c1ccc(/C=N/Nc2nc(N3CCOCC3)nc(N3CCOCC3)n2)o1` [JSF-2189, (E)-4,4'-(6-(2-((5-nitrofuran-2-yl)methylene)hydrazineyl)-1,3,5-triazine-2,4-diyl)dimorpholine], the MIC in the data set on M. tuberculosis H37Rv [1] (setting [17]) is 7.8 µM (≈ 3.15 µg/mL). The half-life in [2] is 68 min. Also, the concentration in solution in [3] (solubility at 4 h) was 20.2 µM (≈ 8.17 µg/mL).
As for `FC(F)(F)Oc1ccc(CO[C@@H]2COc3nccn3C2)cc1` [des-nitro pretomanid, reference compound], in the data set on M. tuberculosis H37Rv [4] (ref Singh et al., 2008), the whole-cell efficacy result is listed as “lack quantifiable whole-cell efficacy”.
Regarding `O=[N+]([O-])c1ccc(/C=N/Nc2nc(Nc3ccccc3)nc(N3CCOCC3)n2)o1` [JSF-2513, (E)-4-morpholino-6-(2-((5-nitrofuran-2-yl)methylene)hydrazineyl)-N-phenyl-1,3,5-triazin-2-amine], in the data set with M. tuberculosis H37Rv [1] (setting [17]), inhibition of growth (MIC) required 0.63 µM (≈ 0.259 µg/mL). This molecule also gave an MIC against E. faecium of 15 µM (≈ 6.16 µg/mL). Also, the “inhibition of human cytochrome P450 isoforms” value in data set [5] was “did not significantly inhibit”. Further, in data set [6], the CC50 was 3.9 µM. In addition, at purified InhA (InhA IC50), the IC50 is > 150 µM. In addition, the “level in the mouse lungs” value in data set [7] (5 h post a single 25 mg/kg dose, limit of quantification 25 ng/mL) is “near the limit of quantification”. For the same molecule, in data set [7] (mouse), the “Clung/Cplasma at 5 h” value was “BLQ” and the “T>MIC” value fell in the range of 8 to 24 h. Besides, in “in vivo”, the volume of distribution (Vd) stood at 1.38 L/kg, the clearance was 37.2 mL/min/kg and the half-life was 25.8 min. Further, in the data set “in vivo” (po, 25 mg/kg), the AUC(0-t) came to 12000 ng·h/mL, the Cmax amounted to 1710 ng/mL and the bioavailability was ≥ 99%. The tolerability in mice result in data set [8] was “lethargy”. The “NO• release quantified as nitrite” value in the data set with M. tuberculosis H37Rv [9] was “in a lesser amount than JSF-2019”. In addition, the “stability in mouse plasma, compound remaining” value in “Mouse plasma stability” is “satisfactory stabilities in mouse plasma”. Besides, the MIC in the data set with E. cloacae is > 120 µM. Besides, the “NO• release quantified as nitrite” value in the data set with M. tuberculosis fgd1∷tn was “abolished”. Further, in the data set with P aeruginosa, the MIC was > 120 µM. Moreover, in data set [10], the “reduction in colony-forming units (CFUs)” value is “ca. 7 log10”. In [11], the “FAMEs and MAMEs profile by TLC” value was “depletion of MAMEs and accumulation of precursor FAMEs”. In addition, in the data set on M. tuberculosis H37Rv [12], the “M. tuberculosis CFUs in mouse lungs and spleen versus vehicle” value was “failed to demonstrate a reduction in M. tuberculosis CFUs”. In [13], this molecule had a half-life of 61.7 min and a microsomal CLint of 11.2 µL/min/mg. In addition, the concentration in solution in data set [3] (solubility at 4 h) was 0.853 µM (≈ 0.35 µg/mL).
Turning to `CC1(Nc2nc(N/N=C/c3ccc([N+](=O)[O-])o3)nc(N3CCOCC3)n2)CC1` [JSF-2625, (E)-N-(1-methylcyclopropyl)-4-morpholino-6-(2-((5-nitrofuran-2-yl)methylene)hydrazineyl)-1,3,5-triazin-2-amine], in the data set on M. tuberculosis H37Rv [1] (setting [17]), the MIC turned out to be 0.25 µM (≈ 0.0971 µg/mL). Further, the half-life in [2] was 56.4 min. Besides, the “T>MIC” value in data set [7] (mouse) was 1 to 3 h. Besides, in the data set “in vivo” (25 mg/kg), the Kp at 5 h worked out at 0.3. In “in vivo”, the Vd was 1.44 L/kg, the clearance was 88 mL/min/kg and the half-life is 11.4 min. Moreover, in the data set “in vivo” (po, 25 mg/kg), the area under the curve AUC(0-t) was 538 ng·h/mL, the maximum concentration (Cmax) is 266 ng/mL and the bioavailability was 11.4%. In addition, the “stability in mouse plasma, aqueous DMSO, or aqueous CH3CN” value in data set [14] was “found to degrade”. The concentration in solution in [3] (solubility at 4 h) was 8.71 µM (≈ 3.38 µg/mL).
For `O=[N+]([O-])c1ccc(/C=N/Nc2nc(Nc3ccccc3)nc(Nc3ccccc3)n2)o1` [JSF-2019, (E)-6-(2-((5-nitrofuran-2-yl)methylene)hydrazinyl)-N2,N4-diphenyl-1,3,5-triazine-2,4-diamine], the MIC in the data set on M. tuberculosis H37Rv [1] (setting [17]) was 0.078 µM (≈ 0.0325 µg/mL). The half-life in data set [2] is 63.6 min. Further, the “MIC (minimum concentration to inhibit 90% of bacterial growth)” value with M. tuberculosis H37Rv [4] (ref Ekins et al., 2013) was 0.15 µM. Moreover, the IC50 at purified InhA (InhA IC50, in the presence of 1% CMC Tween-20) worked out at 24 ± 3.6 µM. Half-maximal inhibition at purified InhA (InhA IC50, without added detergent, substrate 2-dodecenoyl-CoA, NADH) (IC50) was put at 20 ± 2.4 µM. Moreover, the “T>MIC” value in [7] (mouse) is on record as 5.0 h. The Kp at 5 h in the data set “in vivo” (25 mg/kg) was found to be 2.6. In “in vivo” (po, 25 mg/kg), this molecule returned an AUC of 1150 ng·h/mL, an AUC(0-t) of 1150 ng·h/mL and a Cmax of 317 ng/mL. For the same molecule, in the data set on M. tuberculosis, the “MBC (lowest concentration to reduce the bacterial population by 2 log10)” value is on record as 600 – 1200 nM. Further, the “NO• release quantified as nitrite” value in the data set on M. tuberculosis H37Rv [9] was “smaller yet quantifiable NO• release compared to pretomanid”. Also, the “NO• release quantified as nitrite” value in the data set with M. tuberculosis fgd1∷tn is on record as “not discernible”. Further, the “aqueous solubility S” value in [15] is < 0.060 µM. The “reduction in colony-forming units (CFUs)” value in [10] is recorded as ~4 log10. Further, the “FAMEs and MAMEs profile by TLC” value in data set [11] ([…], INH and pretomanid at 10x MIC, JSF-2019 and JSF-2513 1 – 40x MIC) was “accumulation of FAMEs and decrease of MAMEs”. Also, the “MIC shift / loss of susceptibility, fgd1∷tn versus H37Rv” value in data set [16] turned out to be 17 fold.
The molecule `NNC(=O)c1ccncc1` [INH, reference compound] yielded an MIC in the data set on M. tuberculosis H37Rv [1] (setting [17]) of 0.16 µM (≈ 0.0219 µg/mL). For the same molecule, in data set [11], the “FAMEs and MAMEs profile by TLC” value was “reduction of mycolic acids”.
As for `O=[N+]([O-])c1cn2c(n1)OC[C@@H](OCc1ccc(OC(F)(F)F)cc1)C2` [Pretomanid, reference compound], the results for the MIC against M. tuberculosis H37Rv [1] (H37Rv) and in the data set with M. tuberculosis H37Rv [1] (setting [17]) were 0.078 µM (≈ 0.028 µg/mL) and 0.039 µM (≈ 0.014 µg/mL), respectively. For the same molecule, the “reduction in colony-forming units (CFUs)” value in data set [10] is reported as 6 log10. The “FAMEs and MAMEs profile by TLC” value in [11] was “decrease of MAMEs”.
Regarding `O=[N+]([O-])c1ccc(/C=N/Nc2nc(N3CCC3)nc(N3CCOCC3)n2)o1` [JSF-2619, (E)-4-(4-(azetidin-1-yl)-6-(2-((5-nitrofuran-2-yl)methylene)hydrazineyl)-1,3,5-triazin-2-yl)morpholine], in data set [7] (mouse), the “T>MIC” value lay in the range of 3 to 5 h. In the data set “in vivo” (25 mg/kg), this molecule yielded a Kp at 5 h of 0.23. For the same molecule, in “in vivo”, the Vd stood at 1.91 L/kg, the clearance was 61.7 mL/min/kg and the half-life was 21.6 min. In “in vivo” (po, 25 mg/kg), this molecule registered an AUC(0-t) of 7640 ng·h/mL, a Cmax of 4200 ng/mL and a bioavailability of 49.2%. Further, in the data set “Mouse plasma stability”, the “stability in mouse plasma, compound remaining” value is “satisfactory stabilities in mouse plasma”.

(Values after article PMC7035970 (Cell chemical biology, 2019).)
